Data taken from US20260183274A1, “PDK1 REGULATORY COMPOUND AND COMPOSITION CONTAINING THE SAME” (PROVIBIO CO., LTD., priority 2024, published 2026).

How the values were obtained:
[1] = system: T cells isolated from mouse spleens; experiment: T cell proliferation inhibition (CFSE flow cytometry, anti-CD3/anti-CD28 stimulation); assay type: cell-based; conditions: mouse spleen T cells, 3 days; for inhibition at 0.01 µM / inhibition at 0.1 µM / inhibition at 1 µM / inhibition at 10 µM / inhibition at 30 µM / inhibition at 50 µM: Mus musculus, T-cell, 72 h, read-out: Proliferation inhibition rate (%)
How it was run: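 Splenic T cells from 7-week-old C57BL/6 mice were MACS-isolated, CFSE-labelled, seeded at 2×10^5 cells/well and activated with anti-CD3/anti-CD28 (0.5 μg/mL each). Compound at 10 nM–50 μM (six levels, triplicate) was present for 3 days at 37 °C before flow cytometric readout of proliferation inhibition rate.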

[2] = system: Human B Lymphocyte cell line, SU-DHL-8; experiment: Relative cell viability CCK-8, SU-DHL-8; assay type: cell-based; conditions: for viability at 1 µM / viability at 10 µM / viability at 30 µM / viability at 50 µM: Homo sapiens, SU-DHL-8, 48 h; for viability at 1 µM: read-out: Relative cell viability (%), SU-DHL-8, 1 μM; for viability at 10 µM: read-out: Relative cell viability (%), SU-DHL-8, 10 μM; for viability at 30 µM: read-out: Relative cell viability (%), SU-DHL-8, 30 μM; for viability at 50 µM: read-out: Relative cell viability (%), SU-DHL-8, 50 μM
Experimental: Human-derived B lymphoma cell line SU-DHL-8 (Cat. #CRL-2961) purchased from ATCC was cultured in RPMI-1640 medium containing 10% FBS, 100 U/mL penicillin, and 100 μg/mL streptomycin.
The cell culture medium was then harvested, centrifuged at 1,300 rpm for 5 minutes, and the supernatant was removed. The cells were resuspended in the same medium and dispensed into a 96-well plate (Costar 96-well cell culture plate, Corning) at 90 μL per well, resulting in the conditions specified in Table 5.
Then, 10 μL of CCK-8 was added to each well, and the plates were incubated again at 37° C. in a 5% CO2 incubator for 4 hours.
In other words, when the survival rate of untreated cells (DMSO) is set at 100%, the relative cell survival rate in each group treated with the drug at different concentrations is indicated.

[3] = 48 hours, untreated (DMSO) = 100%
[4] = 1 μM, 48 hours, untreated (DMSO) = 100%
[5] = 10 μM, 48 hours, untreated (DMSO) = 100%
[6] = 30 μM, 48 hours, untreated (DMSO) = 100%

COC1CCN(CCCCCCCCCCCCNC(=O)c2cccnc2N)C1 (centres unmarked) [Compound 32, 2-Amino-N-(12-(3-methoxypyrrolidin-1-yl)dodecyl) nicotinamide]
Proliferation inhibition rate (%) ([1]; compound 10 nM, listed as PBK-2024-024, 0.01 µM): 0.29% | Relative cell viability (%), SU-DHL-8 ([2]; 1 μM, 48 hours, untreated (DMSO) = 100%, listed as PBK-2024-024, 1 µM): 3.48% | Relative cell viability (%), SU-DHL-8 ([2]; 10 μM, 48 hours, untreated (DMSO) = 100%, listed as PBK-2024-024, 10 µM): 3.01% | Relative cell viability (%), SU-DHL-8 ([2]; 30 μM, 48 hours, untreated (DMSO) = 100%, listed as PBK-2024-024, 30 µM): 1.97% | Relative cell viability (%), SU-DHL-8 ([2]; 50 μM, 48 hours, untreated (DMSO) = 100%, listed as PBK-2024-024, 50 µM): 1.45%

Nc1ncccc1C(=O)NCCCCCCCCCCCCN1CC2CCCC2C1 (centres unmarked) [Compound 46, 2-Amino-N-(12-(hexahydrocyclopenta[c]pyrrol-2 (1H)-yl)dodecyl)nicotinamide]
inhibition at 0.01 µM ([1]; compound 10 nM): -10.5% | inhibition at 0.1 µM ([1]; compound 100 nM): 100% | inhibition at 1 µM ([1]; compound 1 μM): 100% | inhibition at 10 µM ([1]; compound 10 μM): 100% | inhibition at 30 µM ([1]; compound 30 μM): 100% | inhibition at 50 µM ([1]; compound 50 μM): 100% | viability at 1 µM [2, 3]: 4.8% | viability at 10 µM [2, 3]: 2.44% | viability at 30 µM [2, 3]: 2.08% | Relative cell viability (%), SU-DHL-8 ([2]; human, 48 h, 50 µM): −0.92%

CC1CNCCN1CCCCCCCCCCCCNC(=O)c1cccnc1N (centres unmarked) [Compound 35, 2-Amino-N-(12-(2-methylpiperazin-1-yl)dodecyl) nicotinamide]
Proliferation inhibition rate (%) ([1]; compound 10 nM): 8.33% | Proliferation inhibition rate (%) ([1]; compound 100 nM): 100.00% | Proliferation inhibition rate (%) ([1]; compound 1 μM): 100.00% | Proliferation inhibition rate (%) ([1]; compound 10 μM): 100.00% | Proliferation inhibition rate (%) ([1]; compound 30 μM): 100.00% | Proliferation inhibition rate (%) ([1]; compound 50 μM): 100.00% | Relative cell viability (%), SU-DHL-8 [2, 4]: 1.18% | Relative cell viability (%), SU-DHL-8 [2, 5]: 0.64% | Relative cell viability (%), SU-DHL-8 [2, 6]: 0.42%

CC1CN(CCCCCCCCCCCCNC(=O)c2cccnc2N)CC(C)O1 (centres unmarked) [Compound 21, 2-Amino-N-(12-(2,6-dimethylmorpholino)dodecyl) nicotinamide]
Proliferation inhibition rate (%) ([1]; compound 10 nM): −13.87% | Proliferation inhibition rate (%) ([1]; compound 100 nM): 100.00% | Proliferation inhibition rate (%) ([1]; compound 1 μM): 100.00% | Proliferation inhibition rate (%) ([1]; compound 10 μM): 100.00% | Proliferation inhibition rate (%) ([1]; compound 30 μM): 100.00% | Proliferation inhibition rate (%) ([1]; compound 50 μM): 100.00% | Relative cell viability (%), SU-DHL-8 [2, 4]: 9.64% | Relative cell viability (%), SU-DHL-8 [2, 5]: 7.68% | Relative cell viability (%), SU-DHL-8 [2, 6]: 3.70%

Nc1ncccc1C(=O)NCCCCCCCCCCCCN1CC=CC1 [Compound 129, 2-amino-N-(12-(2,5-dihydro-1H-pyrrol-1-yl)dodecyl) nicotinamide]
Proliferation inhibition rate (%) ([1]; compound 10 nM): 0.00% | Proliferation inhibition rate (%) ([1]; compound 100 nM): 90.00% | Proliferation inhibition rate (%) ([1]; compound 1 μM): 100.00% | Proliferation inhibition rate (%) ([1]; compound 10 μM): 100.00% | Proliferation inhibition rate (%) ([1]; compound 30 μM): 100.00% | Proliferation inhibition rate (%) ([1]; compound 50 μM): 100.00% | Relative cell viability (%), SU-DHL-8 [2, 4]: 34.26% | Relative cell viability (%), SU-DHL-8 [2, 5]: 33.99% | Relative cell viability (%), SU-DHL-8 [2, 6]: 35.05% | Relative cell viability (%), SU-DHL-8 ([2]; 50 μM, 48 hours, untreated (DMSO) = 100%): 34.27%

CN1CCN(C2CCN(CCCCCCCCCCCCNC(=O)c3cccnc3N)CC2)CC1 [Compound 124, 2-Amino-N-(12-(4-(4-methylpiperazin-1-yl)piperidin-1-yl)dodecyl)nicotinamide]
inhibition at 0.01 µM ([1]; compound 10 nM): 0% | inhibition at 0.1 µM ([1]; compound 100 nM): 20% | inhibition at 1 µM ([1]; compound 1 μM): 30% | inhibition at 10 µM ([1]; compound 10 μM): 100% | inhibition at 30 µM ([1]; compound 30 μM): 100% | inhibition at 50 µM ([1]; compound 50 μM): 100% | viability at 1 µM [2, 3]: 30.4% | viability at 10 µM [2, 3]: 30.7% | viability at 30 µM [2, 3]: 32.1% | viability at 50 µM [2, 3]: 31.7%

CN1CCN(C(=O)OC(C)(C)C)CC1CCCCCCCCNC(=O)c1cccnc1N (centres unmarked) [Compound 12, tert-Butyl 3-(8-(2-aminonicotinamido)octyl)-4-methylpiperazine-1-carboxylate]
viability at 1 µM [2, 3]: 7.6% | viability at 10 µM [2, 3]: 3.79% | viability at 30 µM [2, 3]: 1.64% | viability at 50 µM [2, 3]: 1.13%

Nc1ncccc1C(=O)NCCCCCCCCCCF [Compound 68, 2-Amino-N-(10-fluoro-decyl)-nicotinamide]
viability at 1 µM [2, 3]: 16.1% | viability at 10 µM [2, 3]: 15.3% | Relative cell viability (%), SU-DHL-8 ([2]; human, 48 h, 30 µM): −2.90% | Relative cell viability (%), SU-DHL-8 ([2]; human, 48 h, 50 µM): −5.64%

Cl.Nc1ncccc1C(=O)NCCCCCCCCCCCF [Compound 71, 3-(11-fluoro-undecylcarbamoyl)-pyridin-2-yl-ammonium chloride]
viability at 50 µM [2, 3]: 0.75% | Relative cell viability (%), SU-DHL-8 ([2]; human, 48 h, 1 µM): 5.57% | Relative cell viability (%), SU-DHL-8 ([2]; human, 48 h, 10 µM): 4.05% | Relative cell viability (%), SU-DHL-8 ([2]; human, 48 h, 30 µM): 2.04%
